From patent US20260184697A1, “EZH1/2 INHIBITOR, PREPARATION THEREOF, AND USE THEREOF IN ANTI-TUMOR THERAPY” (JIANGSU TASLY DIYI PHARMACEUTICAL CO., LTD., priority 2022, published 2026)

Experiments:
[1] = molecular target: T1, EZH2/SUZ/EED (Homo sapiens, UniProt O75530+Q15022+Q15910); assay: Inhibitory effect on EZH2 by the MTase-Glo method (Test Example 1); assay type: biochemical; details: EZH2/SUZ/EED 6.25 nM, H3 peptide 10 μM, SAM 3 μM, 30° C. 3 h, read-out: Test Example 1 WT EZH2 IC50
T1 construct: purchased BPS 51003
T1 sequence (Q15910 2-746 limits assumed): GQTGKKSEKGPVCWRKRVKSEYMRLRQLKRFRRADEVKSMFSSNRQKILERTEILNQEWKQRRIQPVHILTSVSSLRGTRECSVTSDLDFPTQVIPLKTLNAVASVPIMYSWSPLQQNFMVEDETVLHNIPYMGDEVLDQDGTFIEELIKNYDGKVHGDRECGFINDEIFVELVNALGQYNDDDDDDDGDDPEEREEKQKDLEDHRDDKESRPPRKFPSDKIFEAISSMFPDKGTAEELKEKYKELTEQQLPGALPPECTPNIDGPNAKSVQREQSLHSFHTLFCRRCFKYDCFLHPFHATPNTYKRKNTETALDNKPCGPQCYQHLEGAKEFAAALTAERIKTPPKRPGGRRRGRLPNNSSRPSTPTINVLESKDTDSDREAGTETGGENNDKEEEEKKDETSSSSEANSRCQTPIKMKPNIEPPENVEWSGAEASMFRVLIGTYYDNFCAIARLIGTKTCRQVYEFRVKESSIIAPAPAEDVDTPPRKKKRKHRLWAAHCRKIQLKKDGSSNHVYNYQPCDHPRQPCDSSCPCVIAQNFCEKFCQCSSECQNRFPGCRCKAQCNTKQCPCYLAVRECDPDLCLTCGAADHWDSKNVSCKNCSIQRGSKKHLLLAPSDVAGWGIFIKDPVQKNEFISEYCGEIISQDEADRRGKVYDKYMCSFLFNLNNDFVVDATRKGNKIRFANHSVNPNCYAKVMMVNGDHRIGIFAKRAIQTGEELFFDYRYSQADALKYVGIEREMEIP
T1 sequence (Q15022 2-739 partner limits assumed): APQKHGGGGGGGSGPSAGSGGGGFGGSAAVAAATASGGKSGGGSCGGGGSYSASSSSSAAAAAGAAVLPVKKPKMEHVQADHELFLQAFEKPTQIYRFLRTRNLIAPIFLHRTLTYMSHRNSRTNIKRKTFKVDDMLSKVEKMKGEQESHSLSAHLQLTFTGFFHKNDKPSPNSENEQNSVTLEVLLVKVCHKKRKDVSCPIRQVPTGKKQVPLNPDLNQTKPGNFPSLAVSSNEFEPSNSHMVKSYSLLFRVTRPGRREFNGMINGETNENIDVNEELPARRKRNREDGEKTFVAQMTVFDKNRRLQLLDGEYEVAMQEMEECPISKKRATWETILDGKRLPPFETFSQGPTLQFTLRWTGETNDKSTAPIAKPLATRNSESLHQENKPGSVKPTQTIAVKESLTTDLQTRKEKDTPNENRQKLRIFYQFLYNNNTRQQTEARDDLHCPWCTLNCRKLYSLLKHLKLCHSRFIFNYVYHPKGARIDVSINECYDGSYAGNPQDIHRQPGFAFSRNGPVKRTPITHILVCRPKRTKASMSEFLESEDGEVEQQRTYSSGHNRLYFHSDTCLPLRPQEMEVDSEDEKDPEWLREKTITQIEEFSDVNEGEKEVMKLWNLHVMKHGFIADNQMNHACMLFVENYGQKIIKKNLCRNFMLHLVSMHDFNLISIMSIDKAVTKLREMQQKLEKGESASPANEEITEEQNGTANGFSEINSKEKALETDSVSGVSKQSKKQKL
T1 sequence (O75530 2-441 partner limits assumed): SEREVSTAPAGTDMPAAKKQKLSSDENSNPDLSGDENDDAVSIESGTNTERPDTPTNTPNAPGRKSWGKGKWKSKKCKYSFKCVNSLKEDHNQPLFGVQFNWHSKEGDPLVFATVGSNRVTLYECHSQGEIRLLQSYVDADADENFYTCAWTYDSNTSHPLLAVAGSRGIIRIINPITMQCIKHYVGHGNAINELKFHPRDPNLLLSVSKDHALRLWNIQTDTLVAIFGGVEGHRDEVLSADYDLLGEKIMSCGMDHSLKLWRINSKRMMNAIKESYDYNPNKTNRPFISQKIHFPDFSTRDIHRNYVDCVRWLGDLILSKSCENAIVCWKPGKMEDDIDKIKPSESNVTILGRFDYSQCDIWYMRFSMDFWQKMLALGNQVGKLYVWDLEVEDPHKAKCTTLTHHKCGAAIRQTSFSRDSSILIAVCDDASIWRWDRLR
Experimental: (§1) The compound was dissolved in DMSO, and the compound was serially diluted using ECHO665 and transferred to a 384-well reaction plate (Corning, 3824). A sample containing only DMSO was added as a positive control (maximum signal control) and a negative control (minimum signal control), while ensuring that the final DMSO content in each reaction well was 0.5%. The protein was configured in reaction buffer (50 mM Bicine, 0.01% Triton X-100, 1 mM DTT, 0.01% BSA, pH 7.6), such that the final reaction concentrations of EZH2/SUZ/EED (BPS, 51003) protein solution and EZH1/SUZ/EED (BPS, 51006) were 6.25 nM and 25 nM, respectively. The negative control (minimum signal control) used an equal amount of buffer instead of protein solution. The prepared protein solution was added to the 384-well reaction plate and pre-incubated at room temperature for 15 minutes. The mixture of the substrate H3 peptide fragment (custom-synthesized by GenScript, biotinylated Histone H3(21-44) peptide ([…]-GG-K(Biotin)-OH)) prepared in the reaction buffer and SAM (Promega, V7601) was added into the 384-well plate, such that the final reaction concentration of H3 peptide fragment was 10 μM, and the final concentration of SAM was 3 μM. The mixture was centrifuged at 1000 rpm for 1 min. The 384-well reaction plate was placed in a constant temperature shaker and incubate at 30° C. for 3 h at a speed of 300 rpm. Then the detection reagent was added according to the experimental process of the kit MTase-Glo (Promega, V7601) and incubated.
(§2) After incubation, read with BMG PHERAStar. The luminescence signals obtained by positive control (maximum signal control) and negative control (minimum signal control) were normalized to obtain the inhibition rate of different concentrations of compounds. Then, the IC50 of the compound on the enzyme activity inhibition was calculated by GraphPad Prism 6 with log(inhibitor) vs. response-Variable slope model fitting. The fitting equation is: Y=Bottom+(Top−Bottom)/(1+10^((Log IC50−X)*HillSlope)), wherein Y represents the known percentage remaining enzyme activity, and X represents the known activity after Log compound concentration.

[2] = molecular target: T2, EZH1/SUZ/EED (Homo sapiens, UniProt O75530+Q15022+Q92800); assay: Inhibitory effect on EZH1 by the MTase-Glo method (Test Example 1); assay type: biochemical; details: EZH1/SUZ/EED 25 nM, H3 peptide 10 μM, SAM 3 μM, 30° C. 3 h, read-out: Test Example 1 WT EZH1 IC50
T2 construct: purchased BPS 51006
T2 sequence (Q92800 2-747 limits assumed): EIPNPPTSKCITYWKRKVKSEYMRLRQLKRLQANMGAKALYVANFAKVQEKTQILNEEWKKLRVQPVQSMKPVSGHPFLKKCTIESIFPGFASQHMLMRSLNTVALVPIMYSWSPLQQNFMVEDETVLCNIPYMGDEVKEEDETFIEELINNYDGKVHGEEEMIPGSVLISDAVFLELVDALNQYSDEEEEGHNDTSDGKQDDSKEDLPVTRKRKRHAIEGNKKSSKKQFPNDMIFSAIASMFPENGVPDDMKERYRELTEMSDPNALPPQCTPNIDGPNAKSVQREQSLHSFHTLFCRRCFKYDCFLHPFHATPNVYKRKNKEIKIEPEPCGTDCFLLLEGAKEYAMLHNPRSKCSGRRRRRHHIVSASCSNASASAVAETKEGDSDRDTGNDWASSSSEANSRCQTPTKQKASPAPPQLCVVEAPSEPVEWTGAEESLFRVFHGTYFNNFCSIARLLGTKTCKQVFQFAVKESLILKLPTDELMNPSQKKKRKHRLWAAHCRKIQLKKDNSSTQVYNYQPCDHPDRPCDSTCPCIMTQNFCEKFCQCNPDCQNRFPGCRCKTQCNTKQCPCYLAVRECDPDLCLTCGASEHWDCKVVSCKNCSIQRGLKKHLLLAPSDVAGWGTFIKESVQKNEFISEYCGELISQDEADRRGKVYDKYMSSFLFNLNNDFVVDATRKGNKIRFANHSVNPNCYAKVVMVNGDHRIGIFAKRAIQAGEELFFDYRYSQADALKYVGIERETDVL
T2 sequence (Q15022 2-739 partner limits assumed): as the sequence (Q15022 2-739 partner limits assumed) above
T2 sequence (O75530 2-441 partner limits assumed): as the sequence (O75530 2-441 partner limits assumed) above
Experimental: as §1, §2

Compound | IC50 [1] | IC50 [2]
Cc1cc(C)c(CNC(=O)c2cc(Cl)c3c(c2C)OC(C2CCC(NC4CC(F)(F)C4)CC2)CO3)c(=O)[nH]1 (single isomer, unassigned) [Compound 66] | 24.4 nM | 687 nM
Cc1cc(C)c(CNC(=O)c2cc(Cl)c3c(c2C)OC(C2CCC(NC4CC(F)(F)C4)CC2)CO3)c(=O)[nH]1 (single isomer, unassigned) [Compound 67] | 47.6 nM | 367 nM
COC1(C(F)(F)F)CN(C2CCC(C3COc4c(Cl)cc(C(=O)NCc5c(C)cc(C)[nH]c5=O)c(C)c4O3)CC2)C1 (single isomer, unassigned) [Compound 69] | 84.6 nM | 879 nM
Cc1cc(C)c(CNC(=O)c2cc(Cl)c3c(c2C)OC(C2CCC(N4CC(F)C4)CC2)CO3)c(=O)[nH]1 (single isomer, unassigned) [Compound 71] | 41.8 nM | 564 nM
CON(C)C1CCC(C2COc3c(Cl)cc(C(=O)NCc4c(C)cc(C)[nH]c4=O)c(C)c3O2)CC1 (single isomer, unassigned) [Compound 79] | 2 nM | –
Cc1cc(C)c(CNC(=O)c2ccc3c(c2C)COC(C)(C2CCC(N(C)C)CC2)O3)c(=O)[nH]1 (stereo not drawn) [Compound 4] | 7210 nM | –
[2H]C([2H])([2H])OC1CN([C@H]2CC[C@H]([C@H]3COc4c(Cl)cc(C(=O)NCc5c(SC)cc(C)[nH]c5=O)c(C)c4O3)CC2)C1 [Compound 21] | 6.4 nM | 18.9 nM
CO[C@H]1CCN([C@H]2CC[C@@H]([C@H]3COc4c(Cl)cc(C(=O)NCc5c(SC)cc(C)[nH]c5=O)c(C)c4O3)CC2)C1 [Compound 39] | 4 nM | 7.3 nM
CO[C@@H]1CCN([C@H]2CC[C@@H]([C@H]3COc4c(Cl)cc(C(=O)NCc5c(SC)cc(C)[nH]c5=O)c(C)c4O3)CC2)C1 [Compound 41] | 4.3 nM | 3.9 nM
Cc1cc(C)c(CNC(=O)c2cc(Cl)c3c(c2C)O[C@H]([C@H]2CC[C@@H](N4CC5COCC5C4)CC2)CO3)c(=O)[nH]1 (stereo partly drawn) [Compound 74] | 998 nM | > 10000 nM
Cc1cc(C)c(CNC(=O)c2cc(Cl)c3c(c2C)OC(C2CCN(CC4COC4)CC2)CO3)c(=O)[nH]1 (stereo not drawn) [Compound 83] | 8.2 nM | –
CON=C1CCC([C@H]2COc3c(Cl)cc(C(=O)NCc4c(C)cc(C)[nH]c4=O)c(C)c3O2)CC1 (stereo partly drawn) [Compound 93] | 6 nM | 132 nM
COCCOC1CN([C@H]2CC[C@H]([C@H]3COc4c(Cl)cc(C(=O)NCc5c(OC)cc(C)[nH]c5=O)c(C)c4O3)CC2)C1 [Compound 102] | 2.6 nM | 655 nM
COCCN(C)[C@H]1CC[C@H]([C@H]2COc3c(Cl)cc(C(=O)NCc4c(OC)cc(C)[nH]c4=O)c(C)c3O2)CC1 [Compound 108] | 5 nM | 69.3 nM
COc1cc(C)[nH]c(=O)c1CNC(=O)c1cc(Cl)c2c(c1C)O[C@@H]([C@H]1CC[C@@H](N3CC4(CC4)C3)CC1)CO2 [Compound 111] | 13.4 nM | 27.3 nM
COc1cc(C)[nH]c(=O)c1CNC(=O)c1cc(Cl)c2c(c1C)O[C@@H]([C@H]1CC[C@H](N3CC4CC4C3)CC1)CO2 (stereo partly drawn) [Compound 114] | – | 267 nM
COc1cc(C)[nH]c(=O)c1CNC(=O)c1cc(Cl)c2c(c1C)O[C@@H]([C@H]1CC[C@H](N3CC4C(C3)C4OC)CC1)CO2 (stereo partly drawn) [Compound 116] | – | 156 nM
COc1cc(C)[nH]c(=O)c1CNC(=O)c1cc(Cl)c2c(c1C)O[C@@H](C1CCC(OCCF)CC1)CO2 (stereo partly drawn) [Compound 123] | – | 84 nM
Cc1cc(C2CC2)c(CNC(=O)c2cc(Cl)c3c(c2C)O[C@@H]([C@H]2CC[C@H](N(C)C)CC2)CO3)c(=O)[nH]1 [Compound 158] | – | 3440 nM
CSc1cc(C)[nH]c(=O)c1CNC(=O)c1cc(C#N)c2c(c1C)O[C@@H]([C@H]1CC[C@H](N3CC(OCCF)C3)CC1)CO2 [Compound 162] | – | 29.3 nM

Results, then the compound that gave them:

IC50 [1] | IC50 [2] | Compound
16.6 nM | 584 nM | COc1c(Cl)c2c(c(C)c1C(=O)NCc1c(C)cc(C)[nH]c1=O)O[C@@H](C1CCC(N(C)C)CC1)CO2 (mixture of isomers) [Compound 133]
29.7 nM | 641 nM | Cc1cc(C)c(CNC(=O)c2cc(Cl)c3c(c2C)OC(C2CCC(NC4CC(F)C4)CC2)CO3)c(=O)[nH]1 (single isomer, unassigned) [Compound 65]
59.3 nM | > 10000 nM | COC1(C(F)(F)F)CN(C2CCC(C3COc4c(Cl)cc(C(=O)NCc5c(C)cc(C)[nH]c5=O)c(C)c4O3)CC2)C1 (single isomer, unassigned) [Compound 68]
27.5 nM | 1300 nM | Cc1cc(C)c(CNC(=O)c2cc(Cl)c3c(c2C)OC(C2CCN(C)CC2)CO3)c(=O)[nH]1 (stereo not drawn) [Compound 1]
158 nM | – | CSc1cc(C)[nH]c(=O)c1CNC(=O)c1cc(Cl)c2c(c1C)O[C@@H]([C@H]1CC[C@H](N3CC(OC4CC4)C3)CC1)CO2 [Compound 10]
17.7 nM | – | CSc1cc(C)[nH]c(=O)c1CNC(=O)c1cc(Cl)c2c(c1C)O[C@H]([C@H]1CC[C@@H](N3CC(OC4CC4)C3)CC1)CO2 [Compound 13]
66.3 nM | 491 nM | CSc1cc(C)[nH]c(=O)c1CNC(=O)c1cc(Cl)c2c(c1C)O[C@H](C1CCN(CC3CC3)CC1)CO2 [Compound 31]
– | 13.5 nM | COC1C2CN([C@H]3CC[C@H]([C@H]4COc5c(Cl)cc(C(=O)NCc6c(SC)cc(C)[nH]c6=O)c(C)c5O4)CC3)CC21 (stereo partly drawn) [Compound 44]
1250 nM | > 10000 nM | Cc1cc(C)c(CNC(=O)c2cc(Cl)c3c(c2C)O[C@H]([C@H]2CC[C@H](N4CC5COCC5C4)CC2)CO3)c(=O)[nH]1 (stereo partly drawn) [Compound 72]
85.1 nM | – | Cc1cc(C)c(CNC(=O)c2cc(Cl)c3c(c2C)OC(C2CCN(C(C)C)CC2)CO3)c(=O)[nH]1 (stereo not drawn) [Compound 82]
11 nM | – | Cc1cc(C)c(CNC(=O)c2cc(Cl)c3c(c2C)OC(C2CCN(C4COC4)CC2)CO3)c(=O)[nH]1 (stereo not drawn) [Compound 84]
780 nM | – | Cc1cc(C)c(CNC(=O)c2cc(Cl)c3c(c2C)O[C@H](C2CCN(CC4COC4)CC2)CO3)c(=O)[nH]1 [Compound 87]
1840 nM | – | Cc1cc(C)c(CNC(=O)c2cc(Cl)c3c(c2C)O[C@H](C2CCN(C4COC4)CC2)CO3)c(=O)[nH]1 [Compound 89]
18.6 nM | 945 nM | Cc1cc(C)c(CNC(=O)c2cc(Cl)c3c(c2C)O[C@@H](C2CCN(CC4CC4)CC2)CO3)c(=O)[nH]1 [Compound 90]
11.6 nM | 227 nM | COc1cc(C)[nH]c(=O)c1CNC(=O)c1cc(Cl)c2c(c1C)O[C@@H]([C@H]1CC[C@@H](N3CC4COCC4C3)CC1)CO2 (stereo partly drawn) [Compound 95]
7 nM | 167 nM | COc1cc(C)[nH]c(=O)c1CNC(=O)c1cc(Cl)c2c(c1C)O[C@@H]([C@H]1CC[C@H](N3CC4COCC4C3)CC1)CO2 (stereo partly drawn) [Compound 96]
93.4 nM | – | COc1cc(C)[nH]c(=O)c1CNC(=O)c1cc(Cl)c2c(c1C)O[C@H]([C@H]1CC[C@H](N3CC(OC)C3)CC1)CO2 [Compound 99]
128 nM | – | COc1cc(C)[nH]c(=O)c1CNC(=O)c1cc(Cl)c2c(c1C)O[C@H]([C@H]1CC[C@@H](N3CC(OC)C3)CC1)CO2 [Compound 100]
– | 49.9 nM | COc1cc(C)[nH]c(=O)c1CNC(=O)c1cc(Cl)c2c(c1C)O[C@@H]([C@H]1CC[C@H](N3CC4(CC4)C3)CC1)CO2 [Compound 112]
25.5 nM | – | Cc1cc(C)c(CN(C)C(=O)c2cc(Cl)c3c(c2C)O[C@@H]([C@H]2CC[C@@H](N(C)C)CC2)CO3)c(=O)[nH]1 [Compound 127]
3.9 nM | – | COc1cc(C)[nH]c(=O)c1CN(C)C(=O)c1cc(Cl)c2c(c1C)O[C@@H]([C@H]1CC[C@@H](N(C)C)CC1)CO2 [Compound 129]
– | 126 nM | COc1cc(C)[nH]c(=O)c1CNC(=O)c1cc(Cl)c2c(c1Cl)O[C@@H]([C@H]1CC[C@H](N3CC(OC)C3)CC1)CO2 [Compound 152]
– | 190 nM | Cc1cc(C2CC2)c(CNC(=O)c2cc(Cl)c3c(c2C)O[C@@H]([C@H]2CC[C@@H](N(C)C)CC2)CO3)c(=O)[nH]1 [Compound 157]
– | 31.6 nM | CSc1cc(C)[nH]c(=O)c1CNC(=O)c1cc(C#N)c2c(c1C)O[C@@H]([C@H]1CC[C@H](N3CC(OC4CC4)C3)CC1)CO2 [Compound 160]
– | 17.5 nM | [2H]C([2H])([2H])Sc1cc(C)[nH]c(=O)c1CNC(=O)c1cc(Cl)c2c(c1C)O[C@@H](C1CCC(N3CC(OC)C3)CC1)CO2 (stereo partly drawn) [Compound 178]
